Assay results reported in patent US20230021483A1, “[…] […] METHOD AND CLASSIFICATION OF PHARMACEUTICAL COMPONENTS BY USING TRANSCRIPTOMES” (National Institutes of Biomedical Innovation, Health and …, priority 2016, published 2023).

Assays:
[1] = tested on: inguinal lymph nodes (LN); assay: Whole organ transcriptome (GeneChip microarray) of draining inguinal lymph nodes 6 h after adjuvant administration: sDEGs, gene modules, hierarchical clustering; assay type: in vivo, C57BL/6 mice; settings: hierarchical clustering, lymph node; note: key: G1 (interferon signaling); G2 (metabolism of lipids and lipoproteins); G3 (response to stress); G4 (response to wounding); G5 (phosphate-containing compound metabolic process); G6 (phagosome)
[2] = tested on: preferentially upregulated genes in LV, SP, LN; assay: Z-score-based differential gene expression analysis (adjuvant group- or adjuvant-associated genes, 40 module mapping, TargetMine annotation); assay type: in vivo, C57BL/6 mice; settings: ID, LV
Text: Each sample's FC value was converted into a z-score on a gene basis by using the entire data set for each organ. The Z-score of the triplicates of interest were summed for each adjuvant. For example, the three sample z-score in the LV sample following cdiGMP administration was summed on a gene-by-gene basis, after which the summed scores of >3 genes were selected as relatively preferentially expressed genes in the LV after cdiGMP administration. The following threshold was applied for selections. […] G2^LV: ALM_IP(z>1) & bCD(z>1) & ENDCN(z>1) & FCA(z>1). […] G4^LV: MALP2s(z>3). […] G2^SP: ENDCN_x2+ENDCN_x3(z>2) & ALM_IP(z>3) & bCD(z>3). […] G4^SP: ADX_ID_x2+ADX_ID_x3(z>2) & ADX_IP(z>3) & MALP2s(z>3). […] G2^LN: bCD(z>3) & FCA(z>3). […] G5^LN: K3(z>1.5) & K3SPG_x1+K3SPG_x2(z>1) & D35_x1+D35_x3(z>1). G6^LN: AddaVax(z>3).

CCOCc1nc2c(N)nc3ccccc3c2n1CC(C)(C)O [R848, 4-amino-2-(ethoxymethyl)-a,a-dimethyl-1H-imidazo[4,5-c]quinoline-1-ethanol]
adjuvant group (cluster) in LN [1]: G1
Adar 1425405_a_at (Group G1, Modules 20) ([2]; sample x1): 1.63
Adar 1434268_at (Group G1, Modules 20) ([2]; sample x1): 2.77
Ddx58 1436562_at (Group G1, Modules 20) ([2]; sample x1): 2.64
Ddx58 1456890_at (Group G1, Modules 20) ([2]; sample x1): 2.42
Eif2ak2 1422005_at (Group G1, Modules 20) ([2]; sample x1): 2.43
G3bp2 1421323_a_at (Group G1, Modules 20) ([2]; sample x1): 2.13
Gm9706///Isg15 1431591_s_at (Group G1, Modules 20) ([2]; sample x1): 2.55
H2-T10///H2-T22///H2-T9 1449875_s_at (Group G1, Modules 20) ([2]; sample x1): 2.05
Ifih1 1426276_at (Group G1, Modules 20) ([2]; sample x1): 3.25
Ifit1 1450783_at (Group G1, Modules 20) ([2]; sample x1): 1.54
Ifit3 1449025_at (Group G1, Modules 20) ([2]; sample x1): 2.19
Irf7 1417244_a_at (Group G1, Modules 20) ([2]; sample x1): 2.27
Irgm1 1418825_at (Group G1, Modules 20) ([2]; sample x1): 2.87
Mndal 1426906_at (Group G1, Modules 20) ([2]; sample x1): 1.65
Pml 1448757_at (Group G1, Modules 20) ([2]; sample x1): 1.77
Pml 1456103_at (Group G1, Modules 20) ([2]; sample x1): 3.66
Rnf213 1455500_at (Group G1, Modules 20) ([2]; sample x1): 1.29
Rsad2 1436058_at (Group G1, Modules 20) ([2]; sample x1): 1.97
Shisa5 1423986_a_at (Group G1, Modules 20) ([2]; sample x1): 2.93
Shisa5 1437503_a_at (Group G1, Modules 20) ([2]; sample x1): 3.09
Stat1 1450033_a_at (Group G1, Modules 20) ([2]; sample x1): 1.4
Stat1 1450034_at (Group G1, Modules 20) ([2]; sample x1): 2.37
Tdrd7 1426716_at (Group G1, Modules 20) ([2]; sample x1): 1.79
Tor1aip2 1418115_s_at (Group G1, Modules 20) ([2]; sample x1): 1.53
Tor1aip2 1418116_at (Group G1, Modules 20) ([2]; sample x1): 1.45
Tor1aip2 1435526_at (Group G1, Modules 20) ([2]; sample x1): 3.12
Trim12a 1437432_a_at (Group G1, Modules 20) ([2]; sample x1): 2.13
Uba7 1426970_a_at (Group G1, Modules 20) ([2]; sample x1): 2.64
Adar 1425405_a_at (Group G1, Modules 20) ([2]; sample x2): 1.17
Adar 1434268_at (Group G1, Modules 20) ([2]; sample x2): 1.8
Ddx58 1436562_at (Group G1, Modules 20) ([2]; sample x2): 2.33
Ddx58 1456890_at (Group G1, Modules 20) ([2]; sample x2): 1.34
Eif2ak2 1422005_at (Group G1, Modules 20) ([2]; sample x2): 1.56
G3bp2 1421323_a_at (Group G1, Modules 20) ([2]; sample x2): 1.21
Gm9706///Isg15 1431591_s_at (Group G1, Modules 20) ([2]; sample x2): 2.1
H2-T10///H2-T22///H2-T9 1449875_s_at (Group G1, Modules 20) ([2]; sample x2): 2.01
Ifih1 1426276_at (Group G1, Modules 20) ([2]; sample x2): 2.46
Ifit1 1450783_at (Group G1, Modules 20) ([2]; sample x2): 1.14
Ifit3 1449025_at (Group G1, Modules 20) ([2]; sample x2): 1.76
Irf7 1417244_a_at (Group G1, Modules 20) ([2]; sample x2): 2.39
Irgm1 1418825_at (Group G1, Modules 20) ([2]; sample x2): 2.12
Mndal 1426906_at (Group G1, Modules 20) ([2]; sample x2): 1.42
Pml 1448757_at (Group G1, Modules 20) ([2]; sample x2): 1.53
Pml 1456103_at (Group G1, Modules 20) ([2]; sample x2): 1.62
Rnf213 1455500_at (Group G1, Modules 20) ([2]; sample x2): 1.03
Rsad2 1436058_at (Group G1, Modules 20) ([2]; sample x2): 1.77
Shisa5 1423986_a_at (Group G1, Modules 20) ([2]; sample x2): 2.32
Shisa5 1437503_a_at (Group G1, Modules 20) ([2]; sample x2): 2.43
Stat1 1450033_a_at (Group G1, Modules 20) ([2]; sample x2): 1.2
Stat1 1450034_at (Group G1, Modules 20) ([2]; sample x2): 1.92
Tdrd7 1426716_at (Group G1, Modules 20) ([2]; sample x2): 1.21
Tor1aip2 1418115_s_at (Group G1, Modules 20) ([2]; sample x2): 1.08
Tor1aip2 1418116_at (Group G1, Modules 20) ([2]; sample x2): 1.22
Tor1aip2 1435526_at (Group G1, Modules 20) ([2]; sample x2): 2.18
Trim12a 1437432_a_at (Group G1, Modules 20) ([2]; sample x2): 1.94
Uba7 1426970_a_at (Group G1, Modules 20) ([2]; sample x2): 2.42
Adar 1425405_a_at (Group G1, Modules 20) ([2]; sample x3): 0.96
Adar 1434268_at (Group G1, Modules 20) ([2]; sample x3): 1
Ddx58 1436562_at (Group G1, Modules 20) ([2]; sample x3): 1.6
Ddx58 1456890_at (Group G1, Modules 20) ([2]; sample x3): 0.95
Eif2ak2 1422005_at (Group G1, Modules 20) ([2]; sample x3): 1.09
G3bp2 1421323_a_at (Group G1, Modules 20) ([2]; sample x3): 1.04
Gm9706///Isg15 1431591_s_at (Group G1, Modules 20) ([2]; sample x3): 1.95
H2-T10///H2-T22///H2-T9 1449875_s_at (Group G1, Modules 20) ([2]; sample x3): 1.77
Ifih1 1426276_at (Group G1, Modules 20) ([2]; sample x3): 2.36
Ifit1 1450783_at (Group G1, Modules 20) ([2]; sample x3): 0.63
Ifit3 1449025_at (Group G1, Modules 20) ([2]; sample x3): 1.49
Irf7 1417244_a_at (Group G1, Modules 20) ([2]; sample x3): 2.37
Irgm1 1418825_at (Group G1, Modules 20) ([2]; sample x3): 2.02
Mndal 1426906_at (Group G1, Modules 20) ([2]; sample x3): 1.21
Pml 1448757_at (Group G1, Modules 20) ([2]; sample x3): 0.66
Pml 1456103_at (Group G1, Modules 20) ([2]; sample x3): 1.29
Rnf213 1455500_at (Group G1, Modules 20) ([2]; sample x3): 0.72
Rsad2 1436058_at (Group G1, Modules 20) ([2]; sample x3): 0.67
Shisa5 1423986_a_at (Group G1, Modules 20) ([2]; sample x3): 2.23
Shisa5 1437503_a_at (Group G1, Modules 20) ([2]; sample x3): 2.49
Stat1 1450033_a_at (Group G1, Modules 20) ([2]; sample x3): 1.05
Stat1 1450034_at (Group G1, Modules 20) ([2]; sample x3): 1.52
Tdrd7 1426716_at (Group G1, Modules 20) ([2]; sample x3): 0.94
Tor1aip2 1418115_s_at (Group G1, Modules 20) ([2]; sample x3): 0.54
Tor1aip2 1418116_at (Group G1, Modules 20) ([2]; sample x3): 0.89
Tor1aip2 1435526_at (Group G1, Modules 20) ([2]; sample x3): 1.22
Trim12a 1437432_a_at (Group G1, Modules 20) ([2]; sample x3): 1.68
Uba7 1426970_a_at (Group G1, Modules 20) ([2]; sample x3): 2.27
